Experimental data: US12521390B2, “Dosage forms for Tyk2 inhibitors” (Bristol-Myers Squibb Company, priority 2019, dated 2026)

Experiments:
[1] = Solubility of BMS-986165 crystalline free base as a function of pH; type: physicochemical; details: pHs>4
[2] = Chemical stability (related substances) of BMS-986165:HPMCAS-H SDDs on storage; type: physicochemical; details: API standard, no storage condition
Experimental: Lots of 25% w/w BMS-986165 SDD with HPMCAS-H were assessed for physical and chemical stability. […] Dissolution performance in the microcentrifuge test was unchanged.
There was no evidence of crystallization by PXRD in any SDD after storage for up to 6 months at 40° C./75% RH open (FIG. 1A and FIG. 1B). DSC data indicated slight changes similar to those observed in 25% w/w BMS-986165 SDD after exposure to 50° C./75% RH or 40° C./75% RH but there was no trend with API loading and the results were considered to reflect an “ageing” or “annealing” effect rather than crystal formation. Scanning electron microscopy (SEM) images confirmed the presence of a single phase homogenous dispersion (FIG. 2A-C, FIG. 3A-C, FIG. 4A-C).

solubility [1]	BMS-986165 (related substances, relative ret. time 1.00) [2]	Total impurities >LOQ [2]	SMILES
low			[2H]C([2H])([2H])NC(=O)c1nnc(NC(=O)C2CC2)cc1Nc1cccc(-c2ncn(C)n2)c1OC [BMS-986165 crystalline free base, 6-(cyclopropaneamido)-4-((2-methoxy-3-(1-methyl-1H-1,2,4-triazol-3-yl)phenyl)amino)-N-(methyl-d3)pyridazine-3-carboxamide]
	99.48	0.52%	[2H]C([2H])([2H])NC(=O)c1nnc(NC(=O)C2CC2)cc1Nc1cccc(-c2ncn(C)n2)c1OC [BMS-986165, 6-(cyclopropaneamido)-4-((2-methoxy-3-(1-methyl-1H-1,2,4-triazol-3-yl)phenyl)amino)-N-(methyl-d3)pyridazine-3-carboxamide]
